Results on 15 molecules are retold here after patent US20250163064A1, “QUINAZOLINE COMPOUNDS AND USES THEREOF AS INHIBITORS OF MUTANT KRAS PROTEINS” (AMGEN INC., priority 2022, published 2025).

Read-outs that look alike come from different tables or passages of the source.

Experiment [1] deals with GDP-bound KRAS protein (aa 1-169), G12D and C118A; SOS-mediated nucleotide exchange (Homo sapiens (Human), UniProt P01116, C118A/G12D). Description: KRAS G12D Coupled Nucleotide Exchange Assay. The conditions noted are these: 2 h compound pre-incubation, GTP, cRAF AlphaScreen. Type of experiment: biochemical. How it is done:
Purified GDP-bound KRAS protein (aa 1-169), containing both G12D and C118A amino acid substitutions and an N-terminal His-tag, was pre-incubated in assay buffer (25 mM HEPES pH 7.4, 10 mM MgCl2, and 0.01% Triton X-100) with a compound dose-response titration for 2 h. Following compound pre-incubation, purified SOS protein (aa 564-1049) and GTP (Roche 10106399001) were added to the assay wells and incubated for an additional 30 min. […] The assay plates were then read on a PerkinElmer En Vision Multilabel Reader, using AlphaScreen® technology, and data were analyzed using a 4-parameter logistic model to calculate IC50 values.

The test system of experiment [2] is Phosphorylation of ERK1/2 in AsPC-1 cells. In words: Phospho-ERK1/2 MSD Assay. Type of experiment: cell-based. On the procedure:
AsPC-1 (ATCC® CRL-1682TM) cells were cultured in RPMI 1640 Medium (ThermoFisher Scientific 11875093) containing 10% fetal bovine serum (ThermoFisher Scientific 16000044) and 1× penicillin-streptomycin-glutamine (ThermoFisher Scientific 10378016). Sixteen hours prior to compound treatment, AsPC-1 cells were seeded in 96-well cell culture plates at a density of 25,000 cells/well and incubated at 37° C., 5% CO2. A compound dose-response titration was diluted in growth media, added to appropriate wells of a cell culture plate, and then incubated at 37° C., 5% CO2 for 2 hours. Following compound treatment, cells were washed with ice-cold Dulbecco's phosphate-buffered saline, no Ca^2+ or Mg^2+ (ThermoFisher Scientific 14190144), and then lysed in RIPA buffer (50 mM Tris-HCl pH 7.5, 1% Igepal, 0.5% sodium deoxycholate, 150 mM NaCl, and 0.5% sodium dodecyl sulfate) containing protease inhibitors (Roche 4693132001) and phosphatase inhibitors (Roche 4906837001). Phosphorylation of ERK1/2 in compound-treated lysates was assayed using Phospho-ERK1/2 Whole Cell Lysate kits (Meso Scale Discovery K151DWD) according to the manufacturer's protocol. Assay plates were read on a Meso Scale Discovery Sector Imager 6000, and data were analyzed using a 4-parameter logistic model to calculate IC50 values.

Experiment [3] deals with His-tagged KRAS G12D protein (Homo sapiens (Human), UniProt P01116, G12D). In words: KRAS G12D TR-FRET Assay. Type of experiment: binding. The conditions noted are these: biotinylated KRPep-2d, 10 μM GDP. How it is done:
Compounds of interest were prepared in a dose-response titration in DMSO, and 80 nL were added via Labcyte Echo to each well of a 384-well plate (Perkin Elmer 6008280). The His-tagged KRAS G12D protein (Amgen) was diluted to 20 nM in Assay Buffer (20 mM HEPES, pH 7.4, 10 mM MgCl2, 50 mM NaCl, 0.1% BSA, 0.01% Tween-20, 10 μM GDP) and 2 μL was added to the appropriate wells of the 384-well plate. The plate was incubated for 30 minutes at rt. Biotinylated KRPep-2d substrate (Amgen) was diluted to […] in Assay Buffer and 2 AL was added to all wells and incubated for 1 hour at room temperature. Detection Reagent (0.4 nM LANCE Eu-W1024 Anti-6×His (Perkin Elmer AD0401), 5 nM streptavidin-d2 (Cisbio 610SADLA)) was prepared in Assay Buffer, then 4 AL was added to the plate and incubated for 1 h at rt. Plates were read using PerkinElmer En Vision (ex: 320 nm, em1: 665 nm, em2: 615 nm) and em1/em2 data was used to generate curve fits using a 4-parameter logistic model to calculate IC50 values.
In general terms: In TR-FRET formats the signal depends on donor and acceptor labels being close together.

Where [4] appears, read: Homo sapiens, ASPC1, 2 h, read-out: 2 h p-ERK (AsPC-1 cells), IC50 (μM), AsPC-1 cells, 2 h compound treatment.
The mark [5] stands for this setting: read-out: 2 h p-ERK (AsPC-1 cells), IC50, AsPC-1 cells, 2 h compound treatment.

His-tagged KRAS G12D protein, sequence (P01116-2 other isoform, or with tags, fused parts or gaps G12D): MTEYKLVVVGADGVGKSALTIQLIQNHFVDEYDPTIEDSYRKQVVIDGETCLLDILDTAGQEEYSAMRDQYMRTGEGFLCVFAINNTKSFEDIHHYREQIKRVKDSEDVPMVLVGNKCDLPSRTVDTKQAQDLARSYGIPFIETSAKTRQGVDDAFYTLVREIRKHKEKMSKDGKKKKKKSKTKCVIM
GDP-bound KRAS protein (aa 1-169), G12D and C118A; SOS-mediated nucleotide exchange, sequence (P01116 other isoform, or with tags, fused parts or gaps G12D/C118A): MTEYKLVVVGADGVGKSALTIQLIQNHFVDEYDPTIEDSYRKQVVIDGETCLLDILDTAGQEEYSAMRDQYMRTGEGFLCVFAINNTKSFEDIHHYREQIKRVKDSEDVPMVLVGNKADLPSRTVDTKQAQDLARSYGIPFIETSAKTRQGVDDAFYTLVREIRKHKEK

As to `N#Cc1c(N)sc2c(F)ccc(-c3c(Cl)cc4c(N5CCC[C@@H](C#N)C5)nc(OC[C@@]56CCCN5C[C@H](F)C6)nc4c3F)c12` [Example 54, (3R)-1-(7-(2-Amino-3-cyano-7-fluorobenzo[b]thiophen-4-yl)-6-chloro-8-fluoro-2-(((2R,7aS)-2-fluorotetrahydro-1H-pyrrolizin-7a(5H)-yl)methoxy)quinazolin-4-yl)piperidine-3-carbonitrile], the IC50 stood at 13 nM in experiment [1], 1.09 µM in experiment [2] (setting [4]) and 14 nM in experiment [3].

Regarding `CC1(O)COCCN(c2nc(OCC34CCCN3CC(F)(F)C4)nc3c(F)c(-c4ccc(F)c5sc(N)c(C#N)c45)c(Cl)cc23)C1` (single isomer, unassigned) [Example 60, 2-Amino-4-(6-chloro-2-((2,2-difluorotetrahydro-1H-pyrrolizin-7a(5H)-yl)methoxy)-8-fluoro-4-(6-hydroxy-6-methyl-1,4-oxazepan-4-yl)quinazolin-7-yl)-7-fluorobenzo[b] thiophene-3-carbonitrile], the IC50 in experiment [1] turned out to be 7 nM; in experiment [2] (setting [4]), 0.292 µM; in experiment [3], 8 nM.

In the case of `N#Cc1c(N)sc2c(F)ccc(-c3c(Cl)cc4c(N5CCCC(=O)CC5)nc(OC[C@@]56CCCN5C[C@H](F)C6)nc4c3F)c12` [Example 16, 2-Amino-4-(6-chloro-8-fluoro-2-(((2R,7a.S)-2-fluorotetrahydro-1H-pyrrolizin-7a(5H)-yl)methoxy)-4-(4-oxoazepan-1-yl)quinazolin-7-yl)-7-fluorobenzo[b] thiophene-3-carbonitrile], the half-inhibitory concentration (IC50) was determined as 3 nM in experiment [1], 0.076 µM in experiment [2] (setting [4]) and 2 nM in experiment [3].

Consider `N#Cc1c(N)sc2c(F)ccc(-c3c(Cl)cc4c(N5CCCC6(COC6)C5)nc(OC[C@@]56CCCN5C[C@H](F)C6)nc4c3F)c12` [Example 42, 2-Amino-4-(6-chloro-8-fluoro-2-(((2R,7aS)-2-fluorotetrahydro-1H-pyrrolizin-7a(5H)-yl)methoxy)-4-(2-oxa-6-azaspiro[3.5]nonan-6-yl)quinazolin-7-yl)-7-fluorobenzo[b] thiophene-3-carbonitrile], for which the values for the IC50 in experiment [1], in experiment [2] (setting [4]) and in experiment [3] were 10 nM, 0.402 µM and 8 nM, respectively.

Take `N#Cc1c(N)sc2c(F)ccc(-c3c(Cl)cc4c(N5CCC[C@H](O)C5)nc(OC[C@@]56CCCN5C[C@H](F)C6)nc4c3F)c12` [Example 36, 2-Amino-4-(6-chloro-8-fluoro-2-(((2R,7aS)-2-fluorotetrahydro-1H-pyrrolizin-7a(5H)-yl)methoxy)-4-((S)-3-hydroxypiperidin-1-yl)quinazolin-7-yl)-7-fluorobenzo[b] thiophene-3-carbonitrile]: the IC50 in experiment [1] was 6 nM; in experiment [2] (setting [4]), 0.205 µM; in experiment [3], 5 nM.

For the molecule `CCC1(O)COCCN(c2nc(OC[C@@]34CCCN3C[C@H](F)C4)nc3c(F)c(-c4ccc(F)c5sc(N)c(C#N)c45)c(Cl)cc23)C1` (single isomer, unassigned) [Example 45], the IC50 amounted to 5 nM in experiment [1], 0.185 µM in experiment [2] (setting [5]) and 6 nM in experiment [3].

For the molecule `N#Cc1c(N)sc2c(F)ccc(-c3c(Cl)cc4c(N5CCCOCCC5)nc(OC[C@@]56CCCN5C[C@H](F)C6)nc4c3F)c12` (single isomer, unassigned) [Example 18], the IC50 was 2 nM in experiment [1], 0.013 µM in experiment [2] (setting [4]) and 2 nM in experiment [3].

`C[C@@H]1[C@H](O)CCN1c1nc(OC[C@@]23CCCN2C[C@H](F)C3)nc2c(F)c(-c3ccc(F)c4sc(N)c(C#N)c34)c(Cl)cc12` [Example 65, 2-Amino-4-(6-chloro-8-fluoro-2-(((2R,7aS)-2-fluorotetrahydro-1H-pyrrolizin-7a(5H)-yl)methoxy)-4-((2R,3R)-3-hydroxy-2-methylpyrrolidin-1-yl)quinazolin-7-yl)-7-fluorobenzo[b] thiophene-3-carbonitrile]: the figures for the 50% inhibitory concentration (IC50) in experiment [1], in experiment [2] (setting [4]) and in experiment [3] were 6 nM, 0.33 µM and 12 nM, respectively.

Regarding `N#Cc1c(N)sc2c(F)ccc(-c3c(Cl)cc4c(N5CCC[C@@H](S(N)(=O)=O)C5)nc(OC[C@@]56CCCN5C[C@H](F)C6)nc4c3F)c12` [Example 12, (3R)-1-(7-(2-Amino-3-cyano-7-fluorobenzo[b]thiophen-4-yl)-6-chloro-8-fluoro-2-(((2R,7aS)-2-fluorotetrahydro-1H-pyrrolizin-7a(5H)-yl)methoxy)quinazolin-4-yl)piperidine-3-sulfonamide], the IC50 amounted to 6 nM in experiment [1], 1.81 µM in experiment [2] (setting [4]) and 6 nM in experiment [3].

`N#Cc1c(N)sc2c(F)ccc(-c3c(Cl)cc4c(N5CCCC6(CC(O)C6)C5)nc(OC[C@@]56CCCN5C[C@H](F)C6)nc4c3F)c12` (stereo partly drawn) [Example 64, 2-Amino-4-(6-chloro-8-fluoro-2-(((2R,7aS)-2-fluorotetrahydro-1H-pyrrolizin-7a(5H)-yl)methoxy)-4-(2-hydroxy-6-azaspiro[3.5]nonan-6-yl)quinazolin-7-yl)-7-fluorobenzo[b]thiophene-3-carbonitrile]: the IC50 in experiment [1] came to 28 nM; in experiment [2] (setting [4]), 1.52 µM; in experiment [3], 25 nM.

In the case of `C[C@]1(CO)CCCN1c1nc(OC[C@@]23CCCN2C[C@H](F)C3)nc2c(F)c(-c3ccc(F)c4sc(N)c(C#N)c34)c(Cl)cc12` [Example 52, 2-Amino-4-(6-chloro-8-fluoro-2-(((2R,7aS)-2-fluorotetrahydro-1H-pyrrolizin-7a(5H)-yl)methoxy)-4-((R)-2-(hydroxymethyl)-2-methylpyrrolidin-1-yl)quinazolin-7-yl)-7-fluorobenzo[b] thiophene-3-carbonitrile], the half-maximal inhibitory concentration (IC50) in experiment [1] was 7 nM; in experiment [2] (setting [4]), 0.505 µM; in experiment [3], 8 nM.

For the molecule `N#Cc1c(N)sc2c(F)ccc(-c3c(Cl)cc4c(N5CCOCC(F)C5)nc(OC[C@@]56CCCN5C[C@H](F)C6)nc4c3F)c12` (single isomer, unassigned) [Example 59], the half-inhibitory concentration (IC50) is 2 nM in experiment [1], 0.062 µM in experiment [2] (setting [5]) and 5 nM in experiment [3].

As to `N#Cc1c(N)sc2c(F)ccc(-c3c(Cl)cc4c(N5CCOCC(F)C5)nc(OC[C@@]56CCCN5C[C@H](F)C6)nc4c3F)c12` (single isomer, unassigned) [Example 58], the half-maximal inhibitory concentration (IC50) in experiment [1] stood at 1 nM; in experiment [2] (setting [4]), 0.078 µM; in experiment [3], 3 nM.

`CC1(O)COCCN(c2nc(OC[C@@]34CCCN3C[C@H](F)C4)nc3c(F)c(-c4ccc(F)c5sc(N)c(C#N)c45)c(Cl)cc23)C1` (single isomer, unassigned) [Example 22]: the IC50 in experiment [1] is 2 nM; in experiment [2] (setting [5]), 0.013 µM; in experiment [3], 2 nM.

For the molecule `N#Cc1c(N)sc2c(F)ccc(-c3c(Cl)cc4c(N5CCC[C@H]5CO)nc(OC[C@@]56CCCN5C[C@H](F)C6)nc4c3F)c12` [Example 49, 2-Amino-4-(6-chloro-8-fluoro-2-(((2R,7aS)-2-fluorotetrahydro-1H-pyrrolizin-7a(5H)-yl)methoxy)-4-((S)-2-(hydroxymethyl)pyrrolidin-1-yl)quinazolin-7-yl)-7-fluorobenzo[b] thiophene-3-carbonitrile], the half-maximal inhibitory concentration (IC50) in experiment [1] worked out at 4 nM; in experiment [2] (setting [4]) it was 0.252 µM; in experiment [3], 4 nM.

By IC50 is commonly meant the point on the concentration scale where inhibition reaches its midpoint.
